Experimental data reported in publication PMC12040169 (PLOS Biology, 2025).

Assay: in vitro
Conditions: human, hela cells, % viability

Structure (SMILES) | viability at 28.5 h, 10 µM [%]
O=C(CN1CCCC2(CCN(C(=O)Cc3c[nH]c4ccccc34)C2)C1)c1ccsc1 (centres unmarked) [CBK132053] | 96.3
O=C1NC(=O)C(CCCCN2CCCC3(CCN(C(=O)Cc4c[nH]c5ccccc45)C3)C2)N1 (centres unmarked) [CBK132059] | 83.8
Cc1ccc2cc(CN(Cc3ccccc3)C(=O)NCc3c(Cl)cccc3Cl)c(=O)[nH]c2c1C [CBK132088] | 81.8
CCN(CC)Cc1ccc2[nH]c(=O)c(CNCc3ccc(OC)cc3)cc2c1 [CBK132113] | 106
O=C(c1cc(F)c(F)cc1F)N1CCC2(CCN(Cc3nc4ccccc4[nH]3)C2)C1 (centres unmarked) [CBK132134] | 89.9
O=C(c1cc(F)c(F)cc1F)N1CCC2(CCN(CCN3CCOCC3)C2)C1 (centres unmarked) [CBK132145C] | 102
O=C1NC(=O)C(CCCCN2CCC3(CCN(C(=O)c4cc(F)c(F)cc4F)C3)C2)N1 (centres unmarked) [CBK132147] | 84.8
COc1ccc(C(=O)N2CCC3(CCN(Cc4cccc(C#N)c4)C3)C2)cc1OC (centres unmarked) [CBK132153] | 87.7
COc1ccc(C(=O)N2CCC3(CCN(Cc4cc(=O)[nH]c(=O)[nH]4)C3)C2)cc1OC (centres unmarked) [CBK132162] | 108
COc1cc(CC(=O)Nc2cccc(-c3ccc(SC(F)(F)F)cc3)c2)cc(OC)c1OC [CBK132426] | 100
Cc1cc(C)nc(N/C(=N\C(=O)Nc2ccccc2)NCc2cccnc2)n1 [CBK132681] | 92.2
O=C(c1ccoc1)N1CCC2(CCCN(Cc3ccc(OC(F)(F)F)cc3)C2)C1 (centres unmarked) [CBK132801] | 114
O=C(c1ccoc1)N1CCC2(CCCN(Cc3c(F)cccc3F)C2)C1 (centres unmarked) [CBK132806] | 95.1
O=C(CN1CCCC2(CCN(C(=O)c3ccoc3)C2)C1)Nc1ccc(F)c(Cl)c1 (centres unmarked) [CBK132822] | 92.7
CCN1CCCC2(CCN(C(=O)c3ccoc3)C2)C1 (centres unmarked) [CBK132832] | 97.7
O=C1NC(=O)C(CCCCN2CCCC3(CCN(C(=O)c4ccoc4)C3)C2)N1 (centres unmarked) [CBK132833] | 96.8
Cc1nc(CN2CCCC3(CCN(C(=O)c4ccoc4)C3)C2)cs1 (centres unmarked) [CBK132838] | 97.6
COc1ccc(C(=O)N2CCC3(CCCN(Cc4nc5ccccc5[nH]4)C3)C2)cc1OC (centres unmarked) [CBK132847] | 93.9
COc1ccc(C(=O)N2CCC3(CCCN(CC(=O)Nc4ncccn4)C3)C2)cc1OC (centres unmarked) [CBK132860] | 105
COc1ccc(C(=O)N2CCC3(CCCN(CCN(C)C)C3)C2)cc1OC (centres unmarked) [CBK132873] | 95.6
CC(C)(C)OC(=O)N1CCC(Oc2nccc3c2ccn3Cc2ccc(S(C)(=O)=O)cc2)CC1 [CBK132881] | 89.2
COc1ccc(C(=O)N2CCN(CC(=O)N3CCOCC3)CC2)cc1 [CBK133150] | 108
COc1cc(NC(=O)Cn2cnc3c2c(=O)n(C)c(=O)n3C)c(OC)cc1Cl [CBK133231] | 99.2
Cn1c(=O)c2c(ncn2CC(=O)Nc2ccccc2I)n(C)c1=O [CBK133275] | 95.6

Structure (SMILES) | viability at 28.5 h, 10 µM [%]
Cn1c(=O)c2c(ncn2CC(=O)Nc2cccnc2)n(C)c1=O [CBK133286] | 94.5
Cn1c(=O)c2c(ncn2CC(=O)Nc2cccc(Br)c2)n(C)c1=O [CBK133287] | 90.7
Cc1cc(Br)ccc1NC(=O)Cn1cnc2c1c(=O)n(C)c(=O)n2C [CBK133289] | 95.6
Cn1c(=O)c2c(ncn2CC(=O)Nc2ccc(C#N)cc2)n(C)c1=O [CBK133466] | 90.9
Cn1c(=O)c2c(ncn2CC(=O)Nc2ccc3ccccc3c2)n(C)c1=O [CBK133722] | 81.2
CCCn1c(NCc2cccc(OC)c2O)nc2ccccc21 [CBK133763] | 96.4
Cc1cccc(OCC(=O)N2CCN(Cc3ccccn3)CC2)c1 [CBK134023G] | 92.3
COC(=O)c1ccc(NC(=O)Cn2nnc(-c3ccc(CN4CCOCC4)cc3)n2)cc1 [CBK134589] | 95.4
Cc1ccc2cc(CN(CCN(C)C)C(=S)Nc3ccccc3)c(=O)[nH]c2c1 [CBK134909] | 104
COc1ccc2[nH]c(=O)c(CN(CCN(C)C)C(=S)Nc3ccc(F)cc3)cc2c1 [CBK135011] | 97.1
Cc1ccc(NC(=S)N(CCN(C)C)Cc2cc3ccc(C)cc3[nH]c2=O)c(C)c1 [CBK135134] | 92.4
CN(C)CCN(Cc1cc2cc3c(cc2[nH]c1=O)OCO3)C(=S)Nc1ccc(F)cc1 [CBK135186] | 91.2
COc1ccc2[nH]c(=O)c(CN(CCCN3CCOCC3)C(=O)Nc3cccc(Cl)c3)cc2c1 [CBK135402] | 96.8
Nc1ccc(-c2nnn(CC(=O)NC3CCCCC3)n2)cc1 [CBK135771] | 86.7
COc1ccc(CNC(=O)Cn2nnc(-c3ccc(NC(=O)C4CCCCC4)cc3)n2)cc1 [CBK135876] | 101
Cc1cc(C)nc(N2CCC(C(=O)NCc3ccc(Cl)cc3)CC2)n1 [CBK136319] | 94.8
CC(C)(C)OC(=O)NC(C)(C)C(=O)N1C[C@H](C(=O)N2CCC3(CC2)CN(S(C)(=O)=O)c2ccccc23)[C@@H](c2nc3ccccc3s2)C1 [CBK136737] | 91.5
O=C(c1ccc(OC(F)(F)F)cc1)N1CCC2(CCN(Cc3ccccc3)CC2)C1 [CBK136746] | 101
O=C(c1cc[nH]c1)N1CCC2(CCN(Cc3ccccc3)CC2)C1 [CBK136756] | 86.9
Cc1cc(C(=O)N2CCC(Cn3cncn3)(C3CCCCC3)CC2)n[nH]1 [CBK136786] | 99.2
O=C(C1COc2ccccc2O1)N1CCC(Cn2cncn2)(C2CCCCC2)CC1 (centres unmarked) [CBK136792] | 102
CSCCC(=O)N1CCC(Cn2cncn2)(C2CCCCC2)CC1 [CBK136799] | 102
Cc1cn(CC(=O)N2CCC(Cn3cncn3)(C3CCCCC3)CC2)c(=O)[nH]c1=O [CBK136800] | 88.4
O=C(CN1CCOCC1)N1CCC(Cn2cncn2)(C2CCCCC2)CC1 [CBK136803] | 95.7

Structure (SMILES) | viability at 28.5 h, 10 µM [%]
O=C(c1ccco1)N1CCC(Cn2cncn2)(C2CCCCC2)CC1 [CBK136811] | 87.2
CN1CCC[C@H]1C(=O)N1CCC(Cn2cncn2)(C2CCCCC2)CC1 [CBK136818] | 101
CC(C)(N)CC(=O)N1CCC(Cn2cncn2)(C2CCCCC2)CC1 [CBK136822] | 89.4
O=C(c1cncnc1)N1CCC(Cn2cncn2)(C2CCCCC2)CC1 [CBK136823] | 92.7
O=C(c1ccc2[nH]c(=O)[nH]c2c1)N1CCC(Cn2cncn2)(C2CCCCC2)CC1 [CBK136824] | 104
O=C(c1ccc(Oc2ccccc2)cc1)N1CCC2(CCN(Cc3ccccc3)C2)C1 (centres unmarked) [CBK136833] | 99.3
O=C1NC(=O)C(CC(=O)N2CCC3(CCN(Cc4ccccc4)C3)C2)N1 (centres unmarked) [CBK136850] | 88.8
O=C(c1c(F)cccc1F)N1CCCC2(CCN(Cc3ccccc3)C2)C1 (centres unmarked) [CBK136886] | 108
O=C(O)CCC(=O)N1CCCC2(CCN(Cc3ccccc3)C2)C1 (centres unmarked) [CBK136890] | 97
CCOC(=O)C1(C2CCCCC2)CCN(C(=O)c2cccc(C(F)(F)F)c2)CC1 [CBK136920] | 91.7
CCOC(=O)C1(C2CCCCC2)CCN(C(=O)Cc2ccc(Cl)c(Cl)c2)CC1 [CBK136922] | 95.2
CCOC(=O)C1(C2CCCCC2)CCN(C(=O)C2COc3ccccc3O2)CC1 (centres unmarked) [CBK136925] | 101
CCOC(=O)C1(C2CCCCC2)CCN(C(=O)CCSC)CC1 [CBK136929] | 113
CCOC(=O)C1(C2CCCCC2)CCN(C(=O)C(c2ccccc2)c2ccccc2)CC1 [CBK136943] | 106
CCOC(=O)C1(C2CCCCC2)CCN(C(=O)C2CCN(C)CC2)CC1 [CBK136948] | 92.7
CCNC(=O)N1CC2(CCN(Cc3ccc4nsnc4c3)CC2)c2ccccc21 [CBK136968] | 102
CC(C)C(=O)N1CC2(CCN(Cc3nc4ccccc4s3)CC2)c2ccccc21 [CBK136980] | 96
CCN1CC2(CCN(Cc3nc4ccccc4s3)CC2)c2ccccc21 [CBK136993] | 108
CCN1CC2(CCN(Cc3ccc4nsnc4c3)CC2)c2ccccc21 [CBK136994] | 87.7
O=C(CO)N1CC2(CCN(CCc3cccc4ccccc34)CC2)c2ccccc21 [CBK137003] | 91.8
O=C(CO)N1CC2(CCN(Cc3cccc4cccnc34)CC2)c2ccccc21 [CBK137004] | 104
N#CCCCN1CCC2(CC1)CN(C(=O)CO)c1ccccc12 [CBK137007] | 86
OCCN1CC2(CCN(Cc3c(F)cccc3F)CC2)c2ccccc21 [CBK137010] | 109

Same assay, conditions: human, hela cells, % viability, bulk resorufin, single well

Structure (SMILES) | viability at 28.5 h, 10 µM [%]
CCOC(=O)C1(c2ccccc2)CCN(C(=O)c2ccc(OC(F)(F)F)cc2)CC1 [CBK132174] | 96.2
CCOC(=O)C1(c2ccccc2)CCN(C(=O)Cc2ccc(Cl)c(Cl)c2)CC1 [CBK132175] | 113
CCOC(=O)C1(c2ccccc2)CCN(C(=O)COc2ccc(F)cc2)CC1 [CBK132176] | 93.8
CCOC(=O)C1(c2ccccc2)CCN(C(=O)C2COc3ccccc3O2)CC1 (centres unmarked) [CBK132178] | 93.3
CCOC(=O)C1(c2ccccc2)CCN(C(=O)Cc2nnn[nH]2)CC1 [CBK132182] | 94.6
CCOC(=O)C1(c2ccccc2)CCN(C(=O)COc2ccccc2OC)CC1 [CBK132183] | 87.1
CCOC(=O)C1(c2ccccc2)CCN(C(=O)c2ccc3occc3c2)CC1 [CBK132187] | 92.2
CCOC(=O)C1(c2ccccc2)CCN(C(=O)CC2NC(=O)NC2=O)CC1 (centres unmarked) [CBK132196] | 93.7
CCOC(=O)C1(c2ccccc2)CCN(C(=O)c2ccco2)CC1 [CBK132199] | 86.2
CCOC(=O)C1(c2ccccc2)CCN(C(=O)Cc2c[nH]cn2)CC1 [CBK132205] | 94.3
CCOC(=O)C1(c2ccccc2)CCN(C(=O)c2ccc3ncccc3c2)CC1 [CBK132206] | 107
CCOC(=O)N1CCC2(CC1)OCc1ccc(-c3ccc(S(C)(=O)=O)cc3)cc1O2 [CBK133035] | 86.1
